# Patent publication US7018840B2, “Fluorescent metal sensors, and methods of making and using the same” (Massachusetts Institute of Technology, priority 2001, dated 2006)
# What was measured:
# [1] = known from the literature; cited from earlier work
# [2] = Affinity of subject ligand for Zn2+; format: binding
# Excerpt: Fluorescence Zn^2+ Binding Titration (Kd1). The first Kd associated with Zn^2+ binding will be measured by a fluorescence titration as described previously. Spectra of the subject ligand will be acquired by exciting at 490 nm or other suitable wavelength and collecting and integrating from 500–575 nm or other appropriate window. The measurements will be performed in triplicate to ensure accuracy of the Kd value.
SMILES,affinity and specificity for Zn^2+ over Mg^2+ and Ca^2+ [1],affinity for Zn^2+ [2]
c1ccc(CN(CCN(Cc2ccccn2)Cc2ccccn2)Cc2ccccn2)nc1 [TPEN],very high affinity and specificity,
"O=C(O)c1ccccc1-c1c2cc(Cl)c(=O)cc-2oc2cc(N(Cc3ccccn3)Cc3ccccn3)ccc12 [compound 30, 9-(o-Carboxyphenyl)-2-chloro-6-[bis(2-pyridylmethyl)amino]-3-xanthanone]",,weak
